Activity calls are given as the source filed them. The calls are words filed in the database; no cut-off is given here. Peptide text beside a SMILES is read from it. * marks the point of attachment. Cbz = O=C(OCc1ccccc1)*; CH2F = FC*
What was measured:
[1] = molecular target: Replicase polyprotein 1ab (Severe acute respiratory syndrome coronavirus 2) (UniProt P0DTD1); test: Binding affinity to SARS-CoV-2 MPro with exposed Cys145 assessed as increase in melting temperature at 1:15 ratio in HEPES at pH 7.5 by DSF analysis
[2] = tested on: GTPase KRas (Homo sapiens), P01116 [G12C]; test: Binding affinity to KRAS-G12C mutant (unknown origin) with exposed Cys12 assessed as increase in melting temperature at 1:15 ratio in HEPES at pH 7.5 by DSF analysis
[3] = tested on: Cellular tumor antigen p53 (Homo sapiens), P04637 [V272M]; test: Thermostabilization of recombinant p53 V272M mutant (unknown origin) […] assessed as increase in melting temperature at 1:15 ratio in HEPES at pH 7.5 by DSF analysis
[4] = tested on: NB-4; test: Antiproliferative activity against human NB4 cells expressing PML/RARalpha assessed as cell growth inhibition measured after 48 hrs by CCK-8 assay; format: functional, cell-based
[5] = molecular target: T1, PML-RARalpha (Homo sapiens) (UniProt P10276+P29590); test: Induction of Flag-tagged PML/RARalpha (unknown origin) degradation overexpressed in HEK293T cells at 0.3 to 1.5 uM incubated for 16 hrs by Western blot analysis; format: cell-based; settings: dose 0.3-1.5 µM
[6] = molecular target: T1, PML-RARalpha (Homo sapiens); test: Induction of Flag-tagged PML/RARalpha (unknown origin) degradation overexpressed in HEK293T cells at 4.2 to 21 uM incubated for 16 hrs by Western blot analysis; format: cell-based; settings: dose 4.2-21 µM
[7] = Plasma stability in mouse assessed as half life at […] measured upto 120 mins by LC-MS analysis; format: ADME, cell-free
[8] = Plasma stability in monkey assessed as half life at […] measured upto 120 mins by LC-MS analysis; format: ADME, cell-free, Macaca mulatta; settings: rhesus monkey
[9] = Plasma stability in human assessed as half life at […] measured upto 120 mins by LC-MS analysis; format: ADME, cell-free
[10] = tested on: NB-4; test: Induction of apoptosis in human NB4 cells assessed as viable cells at 3 uM preincubated for 1 hrs followed by replacement with fresh culture medium and measured after 24 hrs by Annexin V-FITC/7AAD staining based flow cytometry assay (reference value: 94%); format: functional; settings: read-out: Activity
[11] = tested on: NB-4; test: Induction of apoptosis in human NB4 cells assessed as early apoptotic cells at 3 uM preincubated for 1 hrs followed by replacement with fresh culture medium and measured after 24 hrs by Annexin V-FITC/7AAD staining based flow cytometry assay (reference value: 1.93%); format: functional
[12] = tested on: NB-4; test: Induction of apoptosis in human NB4 cells assessed as late apoptotic cells at 3 uM preincubated for 1 hrs followed by replacement with fresh culture medium and measured after 24 hrs by Annexin V-FITC/7AAD staining based flow cytometry assay (reference value: 3.92%); format: functional
[13] = tested on: NB-4; test: Induction of apoptosis in human NB4 cells assessed as necrotic cells at 3 uM preincubated for 1 hrs followed by replacement with fresh culture medium and measured after 24 hrs by Annexin V-FITC/7AAD staining based flow cytometry assay (reference value: 0.10%); format: functional
[14] = tested on: NB-4; test: Induction of apoptosis in human NB4 cells assessed as viable cells at 9 uM preincubated for 1 hrs followed by replacement with fresh culture medium and measured after 24 hrs by Annexin V-FITC/7AAD staining based flow cytometry assay (reference value: 94%); format: functional; settings: read-out: Activity
[15] = tested on: NB-4; test: Induction of apoptosis in human NB4 cells assessed as early apoptotic cells at 9 uM preincubated for 1 hrs followed by replacement with fresh culture medium and measured after 24 hrs by Annexin V-FITC/7AAD staining based flow cytometry assay (reference value: 1.93%); format: functional
[16] = tested on: NB-4; test: Induction of apoptosis in human NB4 cells assessed as late apoptotic cells at 9 uM preincubated for 1 hrs followed by replacement with fresh culture medium and measured after 24 hrs by Annexin V-FITC/7AAD staining based flow cytometry assay (reference value: 3.92%); format: functional
[17] = molecular target: T1, PML-RARalpha (Homo sapiens); test: Induction of PML/RARalpha degradation in human NB4 cells assessed as residual protein level at 0.1 uM incubated for 1 hrs followed by replacement with fresh culture medium and measured after 16 hrs by Western blot analysis (reference value: 1); format: cell-based
[18] = molecular target: T1, PML-RARalpha (Homo sapiens); test: Induction of PML/RARalpha degradation in human NB4 cells assessed as residual protein level at 0.3 uM incubated for 1 hrs followed by replacement with fresh culture medium and measured after 16 hrs by Western blot analysis (reference value: 1); format: cell-based
[19] = molecular target: T1, PML-RARalpha (Homo sapiens); test: Induction of PML/RARalpha degradation in human NB4 cells assessed as residual protein level at 1 uM incubated for 1 hrs followed by replacement with fresh culture medium and measured after 16 hrs by Western blot analysis (reference value: 1); format: cell-based
[20] = molecular target: T1, PML-RARalpha (Homo sapiens); test: Induction of PML/RARalpha degradation in human NB4 cells assessed as residual protein level at 3 uM incubated for 1 hrs followed by replacement with fresh culture medium and measured after 16 hrs by Western blot analysis (reference value: 1); format: cell-based
[21] = molecular target: T1, PML-RARalpha (Homo sapiens); test: Induction of PML/RARalpha degradation in human NB4 cells assessed as residual protein level at 9 uM incubated for 1 hrs followed by replacement with fresh culture medium and measured after 16 hrs by Western blot analysis (reference value: 1); format: cell-based
[22] = tested on: NB-4; test: Induction of granulocytic differentiation in human NB4 cells assessed as increase in CD11b expression at 3 uM incubated for 1 hrs followed by replacement with fresh culture medium for 48 hrs by flow cytometry analysis (reference value: 1.44%); format: functional
[23] = tested on: NB-4; test: Induction of granulocytic differentiation in human NB4 cells assessed as increase in CD11b expression at 9 uM incubated for 1 hrs followed by replacement with fresh culture medium for 48 hrs by flow cytometry analysis (reference value: 1.44%); format: functional
[24] = tested on: NB-4; test: Induction of granulocytic differentiation in human NB4 cells assessed as CD11b positive cells at 3 uM incubated for 1 hrs followed by replacement with fresh culture medium for 48 hrs by flow cytometry analysis relative to control; format: functional
[25] = tested on: NB-4; test: Induction of granulocytic differentiation in human NB4 cells assessed as CD11b positive cells at 9 uM incubated for 1 hrs followed by replacement with fresh culture medium for 48 hrs by flow cytometry analysis relative to control; format: functional
[26] = tested on: NB-4; test: Induction of apoptosis in human NB4 cells assessed as necrotic cells at 9 uM preincubated for 1 hrs followed by replacement with fresh culture medium and measured after 24 hrs by Annexin V-FITC/7AAD staining based flow cytometry assay (reference value: 0.10%); format: functional
[27] = tested on: NB-4; test: Induction of apoptosis in human NB4 cells assessed as viable cells at 27 uM preincubated for 1 hrs followed by replacement with fresh culture medium and measured after 24 hrs by Annexin V-FITC/7AAD staining based flow cytometry assay (reference value: 94%); format: functional; settings: read-out: Activity
[28] = tested on: NB-4; test: Induction of apoptosis in human NB4 cells assessed as early apoptotic cells at 27 uM preincubated for 1 hrs followed by replacement with fresh culture medium and measured after 24 hrs by Annexin V-FITC/7AAD staining based flow cytometry assay (reference value: 1.93%); format: functional
[29] = tested on: NB-4; test: Induction of apoptosis in human NB4 cells assessed as late apoptotic cells at 27 uM preincubated for 1 hrs followed by replacement with fresh culture medium and measured after 24 hrs by Annexin V-FITC/7AAD staining based flow cytometry assay (reference value: 3.92%); format: functional
[30] = tested on: NB-4; test: Induction of apoptosis in human NB4 cells assessed as necrotic cells at 27 uM preincubated for 1 hrs followed by replacement with fresh culture medium and measured after 24 hrs by Annexin V-FITC/7AAD staining based flow cytometry assay (reference value: 0.10%); format: functional
[31] = tested on: Cellular tumor antigen p53 (Homo sapiens), P04637 [V272M]; test: Rescue of p53-V272M mutant transcriptional activity on PUMA promoter in human NCI-H1299 cells assessed as fold change in transcriptional activity at 10 uM pretreated for 10 mins to1 hr followed by replacement with fresh culture media and measured after 24 hrs by firefly/renilla based luciferase reporter assay; format: cell-based; settings: filed as activator, time 10-60 min
[32] = tested on: U-937; test: Cytotoxicity against p53 null human U-937 cells harboring p53 V272M mutant incubated for 48 hrs by CCK-8 assay; format: functional, cell-based; settings: U-937, 48 h
[33] = tested on: U-937; test: Cytotoxicity against p53 null human U-937 cells harboring empty vector incubated for 48 hrs by CCK-8 assay; format: functional, cell-based; settings: U-937, 48 h
[34] = Half life in iv dosed human; format: ADME, organism-based; settings: in vivo
[35] = Half life in po dosed human; format: ADME, organism-based; settings: in vivo
[36] = Half life in iv dosed rat; format: ADME, organism-based; settings: in vivo
[37] = Half life in iv dosed mouse; format: ADME, organism-based; settings: in vivo
[38] = tested on: Cellular tumor antigen p53 (Homo sapiens), P04637 [V272M]; test: Restoration of p53-V272M mutant transcriptional activity on CDKN1A promoter in human NCI-H1299 cells at 22 uM measured after 24 hrs by firefly/renilla based luciferase reporter assay; format: cell-based; settings: filed as activator
[39] = molecular target: T1, PML-RARalpha (Homo sapiens); test: Induction of Flag-tagged PML/RARalpha (unknown origin) degradation overexpressed in HEK293T cells at 7.2 to 36 uM incubated for 16 hrs by Western blot analysis; format: cell-based; settings: dose 7.2-36 µM
[40] = tested on: Cellular tumor antigen p53 (Homo sapiens), P04637 [V272M]; test: Restoration of p53-V272M mutant transcriptional activity on PUMA promoter in human NCI-H1299 cells at 22 uM measured after 24 hrs by firefly/renilla based luciferase reporter assay; format: cell-based; settings: filed as activator
[41] = Plasma stability in dog assessed as half life at […] measured upto 120 mins by LC-MS analysis; format: ADME, cell-free, Canis lupus familiaris
[42] = molecular target: T1, PML-RARalpha (Homo sapiens); test: Induction of Flag-tagged PML/RARalpha (unknown origin) degradation overexpressed in HEK293T cells at 13 to 65 uM incubated for 16 hrs by Western blot analysis; format: cell-based; settings: dose 13-65 µM

T1 sequence (P10276 whole entry, looked up): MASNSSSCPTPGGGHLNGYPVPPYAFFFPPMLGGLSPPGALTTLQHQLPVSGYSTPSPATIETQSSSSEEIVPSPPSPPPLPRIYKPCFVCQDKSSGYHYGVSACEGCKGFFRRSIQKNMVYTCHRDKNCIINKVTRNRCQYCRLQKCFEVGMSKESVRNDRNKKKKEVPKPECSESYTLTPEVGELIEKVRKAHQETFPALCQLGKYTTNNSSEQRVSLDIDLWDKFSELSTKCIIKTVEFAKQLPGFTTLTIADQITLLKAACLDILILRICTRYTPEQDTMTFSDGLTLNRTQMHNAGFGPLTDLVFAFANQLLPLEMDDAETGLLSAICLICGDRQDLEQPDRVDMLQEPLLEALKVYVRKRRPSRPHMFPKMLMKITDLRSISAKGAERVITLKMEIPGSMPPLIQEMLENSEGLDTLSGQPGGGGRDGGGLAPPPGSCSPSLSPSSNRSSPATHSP
T1 sequence (P29590 whole entry, looked up): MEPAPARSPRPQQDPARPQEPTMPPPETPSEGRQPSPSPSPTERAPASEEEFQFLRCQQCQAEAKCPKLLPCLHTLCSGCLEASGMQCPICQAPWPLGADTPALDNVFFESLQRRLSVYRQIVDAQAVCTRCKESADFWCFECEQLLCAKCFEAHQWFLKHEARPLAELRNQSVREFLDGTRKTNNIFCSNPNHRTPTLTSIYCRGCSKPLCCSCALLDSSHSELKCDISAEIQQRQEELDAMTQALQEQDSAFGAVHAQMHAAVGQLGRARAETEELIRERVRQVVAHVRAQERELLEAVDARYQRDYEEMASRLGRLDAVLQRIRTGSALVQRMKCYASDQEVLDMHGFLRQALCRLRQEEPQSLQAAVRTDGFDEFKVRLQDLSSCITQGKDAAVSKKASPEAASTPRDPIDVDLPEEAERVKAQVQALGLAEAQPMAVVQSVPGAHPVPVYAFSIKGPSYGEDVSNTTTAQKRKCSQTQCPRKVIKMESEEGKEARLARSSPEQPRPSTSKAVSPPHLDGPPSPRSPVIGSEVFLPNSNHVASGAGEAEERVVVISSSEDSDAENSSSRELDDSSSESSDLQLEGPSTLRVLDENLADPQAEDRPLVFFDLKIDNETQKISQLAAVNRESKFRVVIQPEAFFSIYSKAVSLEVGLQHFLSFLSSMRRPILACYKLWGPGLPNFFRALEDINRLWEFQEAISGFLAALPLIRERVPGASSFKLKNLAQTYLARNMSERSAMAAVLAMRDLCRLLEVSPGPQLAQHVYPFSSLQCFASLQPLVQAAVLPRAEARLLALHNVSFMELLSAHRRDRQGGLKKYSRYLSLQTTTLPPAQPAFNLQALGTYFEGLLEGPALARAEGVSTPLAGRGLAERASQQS
Sequence of GTPase KRas (Homo sapiens), P01116 [G12C] (P01116 whole entry G12C): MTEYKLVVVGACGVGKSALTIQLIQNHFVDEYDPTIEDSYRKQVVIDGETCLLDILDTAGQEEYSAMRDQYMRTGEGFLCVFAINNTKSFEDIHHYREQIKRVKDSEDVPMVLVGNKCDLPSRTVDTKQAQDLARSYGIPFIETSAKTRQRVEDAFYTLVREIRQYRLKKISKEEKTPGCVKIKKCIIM

COC(=O)C[C@H](NC(=O)[C@H](C)NC(=O)[C@@H](NC(=O)OCc1ccccc1)C(C)C)C(=O)CF (Cbz-Val-Ala-Asp(OMe)-CH2F)
Activity [1]: Active

C=CC(=O)N1CCN(c2ncnc3c(F)c(-c4c(O)cccc4F)c(Cl)cc23)CC1
Activity [2]: Active

S=[As][As]=S (stereo not given)
Activity [3]: inactive

S1[As]2S[As]3S[As]2S[As]13
Activity [3]: inactive

O=[As]O [SODIUM ARSENITE]
IC50 ([4]; Homo sapiens, NB-4, 48 h): 0.11 µM
Activity [5]: Active

S1[As]2S[As]3S[As]1S[As](S2)S3
IC50 ([4]; nb-4): 1.99 µM
Activity [6]: Active
Activity [3]: inactive

CCN(CC)CCOC(=O)c1ccc(N)cc1 [PROCAINE]
half-life [7]: 9.83 min
half-life [8]: 4.5 min
half-life [9]: 1.4 min

O=[As][As+](=O)[O-] (stereo not given) [ARSENIC TRIOXIDE]
IC50 ([4]; Homo sapiens, NB-4, 48 h): 0.94 µM
viability at 3 µM [10]: 93.8%
Activity [11]: 2.54%
Activity [12]: 3.48%
Activity [13]: 0.23%
viability at 9 µM [14]: 93.6%
Activity [15]: 2.83%
Activity [16]: 3.42%
Activity [17]: 0.81
Activity [18]: 0.6
Activity [19]: 0.57
Activity [20]: 0.49
Activity [21]: 0.41
Activity [22]: 1.65%
Activity [23]: 1.93%
Activity [24]: 1.7%
Activity [25]: 2%
Activity [26]: 0.17%
viability at 27 µM [27]: 93.3%
Activity [28]: 2.88%
Activity [29]: 3.59%
Activity [30]: 0.21%
fold change (FC) [31]: 2.2
IC50 [32]: 1.07 µM
IC50 [33]: > 2 µM
half-life [34]: 60 min
half-life [35]: 360 min
half-life [36]: ~222 min
half-life [37]: ~258 min

S=[As](=S)S[As](=S)=S
IC50 ([4]; nb-4): 1.2 µM
Activity [38]: Active
Activity [39]: Active
Activity [40]: Active

CC(=O)Oc1ccc(C(c2ccc(OC(C)=O)cc2)c2ccccn2)cc1 [BISACODYL]
half-life [41]: 2.06 min

Nc1ccc([As](=O)(O)O)cc1 [ARSANILIC ACID]
IC50 ([4]; Homo sapiens, NB-4, 48 h): > 50 µM

O=[As]12O[As]3(=O)O[As](=O)(O1)O[As](=O)(O2)O3
IC50 ([4]; nb-4): 5.56 µM
Activity [42]: Active

O=S(=O)(O)c1cc(O)c2c(O)c(/N=N/c3ccccc3[As](=O)(O)O)c(S(=O)(=O)O)cc2c1
IC50 ([4]; Homo sapiens, NB-4, 48 h): > 50 µM

Source: ChEMBL document CHEMBL5375988, “AcGlcAs: A Novel P53-Targeting Arsenical with Potent Cellular Uptake and Cancer Cell Selectivity” (J Med Chem, 2023)
